How the values were obtained:
[1] = test system: KB-3-1 parental cell line; experiment: MDR reversal study (MTT), parental KB-3-1; type: cell-based; conditions: chemotherapeutic drug alone
[2] = test system: HEK293/pcDNA3.1 parental cell line; experiment: MDR reversal study (MTT), parental HEK293/pcDNA3.1; type: cell-based; conditions: for IC50 / RF: chemotherapeutic drug alone
[3] = test system: drug-induced ABCC1-overexpressing cancer cell line KB-CV60; experiment: MDR reversal study (MTT), drug-induced ABCC1-overexpressing cells; type: cell-based; conditions: chemotherapeutic drug alone, Table 4
[4] = test system: transfected ABCC1-overexpressing cell line HEK293/ABCC1; experiment: MDR reversal study (MTT), transfected ABCC1-overexpressing cells; type: cell-based; conditions: chemotherapeutic drug alone
[5] = test system: drug-induced ABCB1-overexpressing cancer cell line KB-C2; experiment: MDR reversal study (MTT), drug-induced ABCB1-overexpressing cells; conditions: chemotherapeutic drug alone
[6] = test system: parental cells (KB-3-1); experiment: cells; conditions: Homo sapiens

| SMILES | RF ([1]; Table 2) | RF ([1]; Table 4) | RF ([2]; Table 3) | RF ([2]; Table 5) | RF [3] | RF [4] | other results |
| --- | --- | --- | --- | --- | --- | --- | --- |
| N.N.[Cl][Pt][Cl] [Cisplatin] | 1.00 | 1.00 | 1.00 | 1.00 | 1.25 | 1.01 | IC50 ([1]; Table 2): 1790 ± 476 nM; IC50 ([1]; Table 4): 1790 nM; IC50 ([2]; Table 3): 2210 ± 541 nM; IC50 ([2]; Table 5): 2210 nM; IC50 [3]: 2230 nM; IC50 [4]: 2240 nM; RF [5]: ± 0.428 (1.13) |
| COc1cccc2c1C(=O)c1c(O)c3c(c(O)c1C2=O)C[C@@](O)(C(=O)CO)C[C@@H]3O[C@H]1C[C@H](N)[C@H](O)[C@H](C)O1 [Doxorubicin] | 1.00 | – | – | – | – | – | – |
| CN(C)C(=O)CCSC(SCCC(=O)O)c1cccc(/C=C/c2ccc3ccc(Cl)cc3n2)c1 (stereo not shown) [MK571] | – | – | – | – | – | – | RF of cisplatin ([2]; cisplatin + MK571 (5 μM)): 0.99; RF of vincristine ([2]; vincristine + MK571 (5 μM)): 1.02 |
| CC(=O)O[C@H]1C(=O)[C@@]2(C)[C@H]([C@H](OC(=O)c3ccccc3)[C@]3(O)C[C@H](OC(=O)[C@H](O)[C@@H](NC(=O)c4ccccc4)c4ccccc4)C(C)=C1C3(C)C)[C@]1(OC(C)=O)CO[C@@H]1C[C@@H]2O [Paclitaxel] | 1.00 | – | 1.00 | – | – | – | – |
| CC[C@]1(O)C[C@H]2CN(CCc3c([nH]c4ccccc34)[C@@](C(=O)OC)(c3cc4c(cc3OC)N(C=O)[C@H]3[C@@](O)(C(=O)OC)[C@H](OC(C)=O)[C@]5(CC)C=CCN6CC[C@]43[C@@H]65)C2)C1 [Vincristine] | – | 1.00 | – | 1.00 | 169.05 | 19.79 | IC50 ([1]; Homo sapiens, 72 h, Table 4): 95 nM; IC50 ([2]; Homo sapiens, Table 5): 137 nM; IC50 [6]: 95 nM |

From patent publication US11590199B2, “Use of an ABC transporter peptide inhibitor” (HUNAN UNIVERSITY OF SCIENCE AND ENGINEERING, priority 2021, dated 2023)
